ChEMBL document CHEMBL1201862, “PubChem BioAssay data set” (2004)
Structures can show the parent of a compound that is named as a salt.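 Growth conditions: 96-well plates. Treatment: test compound, 48 hours, 5 concentrations. Analysis: linear interpolation between bracketing concentrations; unreached endpoints set to highest concentration. At the GI50, growth is halved.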 Activity calls are given as the source filed them. Rule as the data show it: active = GI50 up to about 1.1 µM and inactive = higher.

Key:
Assay in all cases: NCI-60 cell line screen, 48 h
[1] = test system: UO-31
[2] = test system: SN12C
[3] = test system: HL-60
[4] = test system: NCI-H522
[5] = test system: RPMI-8226
[6] = test system: SK-OV-3
[7] = test system: M19-MEL
[8] = test system: 786-0
[9] = test system: CAKI-1
[10] = test system: UACC-62
[11] = test system: SNB-75
[12] = test system: ACHN
[13] = test system: COLO 205
[14] = test system: SK-MEL-2
[15] = test system: SK-MEL-5
[16] = test system: NCI-H23
[17] = test system: EKVX
[18] = test system: MCF7
[19] = test system: BT-549
[20] = test system: NCI/ADR-RES

Measured: GI50

S=c1sc2sc(=S)sc2s1
inactive: [1] 30 µM | [2] 96.8 µM | [3] 5.92 µM | [4] 33.1 µM | [5] 23.1 µM | [6] 19.6 µM | [7] 28.6 µM | [8] 68.4 µM | [9] > 100 µM | [10] 37.2 µM | [11] 35.5 µM | [12] > 100 µM | [13] 84.9 µM | [14] > 100 µM | [15] > 100 µM

NCC1(N2CCOCC2)C2CCCC21CNc1ccccc1 (configuration not stated)
inactive: [1] > 100 µM | [2] > 100 µM | [3] 53.8 µM | [4] > 100 µM | [16] > 100 µM | [7] > 100 µM | [8] > 100 µM | [9] > 100 µM | [10] > 100 µM | [11] 57.9 µM | [12] > 100 µM | [13] > 100 µM | [15] > 100 µM

Cc1cc2c(=O)c(C)n[nH]c2c(C#N)c1C
inactive: [17] > 100 µM | [1] > 100 µM | [2] > 100 µM | [3] > 100 µM | [16] > 100 µM | [5] > 100 µM | [6] > 100 µM | [7] > 100 µM | [8] > 100 µM | [10] > 100 µM | [11] > 100 µM | [12] > 100 µM | [13] > 100 µM | [14] > 10 µM

CSC1=Nc2ccccc2N=C(c2ccc(Cl)cc2)C1
inactive: [17] 20.5 µM | [1] 24.5 µM | [2] 40.5 µM | [3] 35.3 µM | [4] 43.1 µM | [16] 31.7 µM | [5] 33.4 µM | [6] 73.3 µM | [7] 36.3 µM | [8] 30.3 µM | [9] 22 µM | [10] 42.8 µM | [12] 36.6 µM | [13] 59.6 µM | [14] 25.4 µM | [15] 24.2 µM

C=C(C#N)C1OCC2OC(C)(C)OC21 (configuration not stated)
inactive: [17] 24.4 µM | [1] 40.5 µM | [2] 18.4 µM | [3] 18.2 µM | [16] 18.6 µM | [6] 50.6 µM | [7] 22 µM | [8] 20.2 µM | [9] 23.4 µM | [10] 17.3 µM | [11] 20.1 µM | [12] 20.7 µM | [13] 15.4 µM | [14] 27.4 µM | [15] 17.3 µM

CC1=NN(C(=O)CC(=O)Nc2ccccc2F)C(=O)C1/N=N/c1ccccc1[N+](=O)[O-] (configuration not stated)
inactive: [17] 26.5 µM | [1] 81.1 µM | [2] > 100 µM | [4] 51.8 µM | [16] 94.6 µM | [5] > 100 µM | [6] > 100 µM | [7] 18.7 µM | [8] > 100 µM | [9] 75.5 µM | [10] 26.2 µM | [11] > 100 µM | [13] > 100 µM | [14] > 100 µM | [15] 17.9 µM

C=C1CN2CCc3c([nH]c4ccccc34)C2CC1CC(=O)N(C)C (configuration not stated)
inactive: [17] > 309 µM | [2] > 309 µM | [3] > 309 µM | [4] > 309 µM | [16] > 309 µM | [5] > 309 µM | [6] > 309 µM | [7] > 309 µM | [8] > 309 µM | [9] > 309 µM | [10] > 309 µM | [12] > 309 µM | [13] > 309 µM | [14] > 309 µM | [15] > 309 µM

CN(/N=C\c1ccc2ccccc2c1)C1=NCCCCN1
inactive: [18] 18.2 µM | [17] 19.7 µM | [1] 13.8 µM | [2] 18.5 µM | [3] 15.1 µM | [4] 16.7 µM | [16] 29.8 µM | [5] 19.8 µM | [6] 22.1 µM | [8] 15.8 µM | [9] 11.8 µM | [10] 27.2 µM | [11] 10.4 µM | [12] 33.7 µM | [19] 14.6 µM | [13] 16.1 µM | [20] 26.7 µM | [14] 23.8 µM | [15] 13.8 µM

O=[N+]([O-])c1ccc(Cl)cc1-n1nc(-c2ccccc2)cc1-c1ccccc1
inactive: [18] 95.1 µM | [17] > 100 µM | [1] > 100 µM | [2] > 100 µM | [3] > 100 µM | [4] > 100 µM | [16] > 100 µM | [5] > 100 µM | [6] > 100 µM | [8] > 100 µM | [9] > 100 µM | [10] > 100 µM | [11] > 100 µM | [12] > 100 µM | [19] > 100 µM | [13] > 100 µM | [20] > 100 µM | [14] > 100 µM | [15] > 100 µM

CC(=O)OC1COC(n2ccc3cc(Br)c([N+](=O)[O-])cc32)C(OC(C)=O)C1OC(C)=O (configuration not stated)
inactive: [17] 39.4 µM | [1] 12.6 µM | [2] 30.8 µM | [4] > 10 µM | [16] 23.3 µM | [5] 22.5 µM | [6] 31.8 µM | [7] 29.4 µM | [8] 33.3 µM | [9] 33.7 µM | [10] 17.6 µM | [11] 23.1 µM | [12] 27.6 µM | [13] 23.7 µM | [14] > 10 µM | [15] > 10 µM

CC(=O)/C(=C\c1ccco1)C(=O)Nc1ccccc1
inactive: [17] > 100 µM | [1] > 100 µM | [2] > 100 µM | [3] > 100 µM | [4] > 100 µM | [16] > 100 µM | [5] > 100 µM | [6] > 100 µM | [7] > 100 µM | [8] > 100 µM | [9] > 100 µM | [10] > 100 µM | [12] > 100 µM | [14] > 100 µM | [15] > 100 µM

O=C/C1=C/C2=Cc3ccccc3C=C(/C=C(/C=O)C1)C2
inactive: [17] > 100 µM | [1] 34 µM | [2] 42.6 µM | [3] 41.5 µM | [4] > 100 µM | [16] 32.9 µM | [5] 32 µM | [7] 53.8 µM | [8] 78.2 µM | [9] 41.1 µM | [10] 73.6 µM | [11] 27.2 µM | [12] > 100 µM | [13] > 100 µM | [14] > 100 µM | [15] 35.3 µM

O=c1c(C(c2cc(OCc3ccccc3)cc(OCc3ccccc3)c2)c2c(O)oc3ccccc3c2=O)c(O)oc2ccccc12
inactive: [18] 12.3 µM | [17] 9.04 µM | [1] 4.85 µM | [2] 3.71 µM | [3] 2.51 µM | [4] 8.61 µM | [16] 4.42 µM | [5] 1.66 µM | [6] 6.58 µM | [8] 8.63 µM | [9] 7.26 µM | [10] 4.02 µM | [11] 3.37 µM | [12] 2.92 µM | [19] 5.01 µM | [13] 8.45 µM | [20] 17.6 µM | [14] 3.86 µM | [15] 6.59 µM

CO[C@@H]1C=C[C@@]23c4cc5c(cc4CN(C[C@@H]2O)[C@H]3C1)OCO5 [(+)-HAEMANTHAMINE]
inactive: [17] 38 µM | [1] 16.5 µM | [2] 16.1 µM | [3] 14 µM | [4] 12.1 µM | [16] 23.6 µM | [5] 29.6 µM | [6] 19.5 µM | [7] 16.6 µM | [8] 20.1 µM | [9] 6.22 µM | [10] 12.9 µM | [11] 9.06 µM | [12] 5.13 µM | [14] 9.16 µM | [15] > 10 µM

CN1C[C@H](C(=O)N[C@]2(C)O[C@@]3(O)[C@@H]4CCCN4C(=O)[C@H](Cc4ccccc4)N3C2=O)C=C2c3cccc4[nH]cc(c34)C[C@H]21 [ERGOTAMINE TARTRATE]
inactive: [18] 20.7 µM | [17] 30.8 µM | [1] 29.1 µM | [2] 20 µM | [3] 19.2 µM | [4] 16.3 µM | [16] 21.5 µM | [5] 22.9 µM | [6] 29.9 µM | [8] 20 µM | [9] 26.4 µM | [10] 16 µM | [11] 35.6 µM | [12] 21.8 µM | [19] 20.9 µM | [13] 16.5 µM | [20] 26.3 µM | [14] 17.4 µM | [15] 14.2 µM

C[C@H]1C[C@@H]2[C@H]([C@@H](O)C[C@@]3(C)[C@H]2CC[C@]3(O)C(=O)CO)[C@@]2(C)C=CC(=O)C=C12 [METHYLPREDNISOLONE]
inactive: [1] > 100 µM | [2] 46.6 µM | [3] > 100 µM | [4] > 100 µM | [16] > 100 µM | [5] > 100 µM | [6] > 100 µM | [7] > 100 µM | [8] > 100 µM | [9] > 100 µM | [10] > 100 µM | [12] > 100 µM | [13] > 100 µM | [14] > 100 µM | [15] > 100 µM
